Data from ChEMBL document CHEMBL4033740, “Novel phenanthrene and isocoumarin from the rhizomes of Dioscorea nipponica Makino subsp. rosthornii (Prain et Burkill) C. T. Ting (Dioscoreaceae)” (Bioorg Med Chem Lett, 2017).

test system: NCI-H460; assay: Cytotoxicity against human NCI-H460 cells incubated for 24 hrs by MTT assay; type: functional, cell-based; settings: NCI-H460, 24 h

| Compound | IC50 |
| --- | --- |
| CC(=O)O[C@H]1CC[C@@]2(C)C(=CC[C@H]3[C@@H]4C[C@@H]5O[C@]6(CC[C@@H](C)CO6)[C@@H](C)[C@@H]5[C@@]4(C)CC[C@@H]32)C1 | > 50 µM |
| O=c1oc(-c2ccccc2O)cc2cc3c(c(O)c12)OCO3 | > 50 µM |
| COc1cc2ccc3c(-c4c(OC)cc(O)c5c4ccc4cc(OC)c(O)cc45)c(OC)cc(O)c3c2cc1O | 23.1 µM |
| O=C(C[C@@H]1C[C@@H](O)C[C@H](c2ccccc2)O1)c1ccccc1 | > 50 µM |
| O=C1O[C@H](c2ccccc2)Cc2cc(O)cc(O)c21 | > 50 µM |
| C[C@H]1[C@H]2[C@H](C[C@H]3[C@@H]4CC=C5C[C@@H](O)CC[C@]5(C)[C@H]4CC[C@]23C)O[C@]12CC[C@@H](CO)CO2 | > 50 µM |
| CC(C)C[C@H]1NC(=O)[C@@H]2CCCN2C1=O | > 50 µM |
| O=C(/C=C/C=C/c1ccc(O)cc1)CCc1ccc(O)cc1 | > 50 µM |
| CCCCC(CC)COC(=O)c1ccccc1C(=O)OCC(CC)CCCC (centres undefined) [BIS(2-ETHYLHEXYL) PHTHALATE] | > 50 µM |
| C[C@@H]1CC[C@@]2(OC1)O[C@H]1C[C@H]3[C@@H]4CC=C5C[C@@H](O[C@@H]6O[C@H](CO)[C@@H](O[C@@H]7O[C@H](CO)[C@@H](O)[C@H](O)[C@H]7O)[C@H](O)[C@H]6O[C@@H]6O[C@@H](C)[C@H](O)[C@@H](O)[C@H]6O)CC[C@]5(C)[C@H]4CC[C@]3(C)[C@H]1[C@@H]2C [DELTONIN] | 5.81 µM |
| C[C@@H]1CC[C@@]2(OC1)O[C@H]1C[C@H]3[C@@H]4CC=C5C[C@@H](O[C@@H]6O[C@H](CO)[C@@H](O[C@@H]7O[C@@H](C)[C@H](O)[C@@H](O)[C@H]7O)[C@H](O)[C@H]6O[C@@H]6O[C@@H](C)[C@H](O)[C@@H](O)[C@H]6O)CC[C@]5(C)[C@H]4CC[C@]3(C)[C@H]1[C@@H]2C [DIOSCIN] | 4.56 µM |
| C[C@@H]1CC[C@@]2(OC1)O[C@H]1C[C@H]3[C@@H]4CC=C5C[C@@H](O)CC[C@]5(C)[C@H]4CC[C@]3(C)[C@H]1[C@@H]2C [DISOGENIN] | > 50 µM |
| C[C@@H]1CC[C@@]2(OC1)O[C@H]1C[C@H]3[C@@H]4CC=C5C[C@@H](O[C@@H]6O[C@H](CO)[C@@H](O)[C@H](O)[C@H]6O[C@@H]6O[C@@H](C)[C@H](O)[C@@H](O)[C@H]6O)CC[C@]5(C)[C@H]4CC[C@]3(C)[C@H]1[C@@H]2C [OPHIOPOGONIN C] | 5.04 µM |
| CC[C@H](CC[C@@H](C)[C@H]1CC[C@H]2[C@@H]3CC=C4C[C@@H](O[C@@H]5O[C@H](CO)[C@@H](O)[C@H](O)[C@H]5O)CC[C@]4(C)[C@H]3CC[C@]12C)C(C)C [SITOGLUSIDE] | > 50 µM |
